Each block holds one molecule with its values, some of them ahead of it.
Tests used:
recombinant human MAP4K4 = target: T1, recombinant human MAP4K4 (Homo sapiens, UniProt O95819); assay: In vitro MAP4K4 kinase activity assay (HTRF Transcreener ADP); assay type: biochemical; details: MAP4K4; HTRF Transcreener ADP assay; read-out: pIC50 (converted)
T1 construct: Human MAP4K4 kinase domain (aa 1-328); purchased Invitrogen PV3687
Description: MAP4K4 kinase activity was monitored using the CisBio HTRF Transcreener ADP assay, a competitive immunoassay with a reproducible Z’ > 0.6. In the detection step, endogenous ADP and d2-labeled ADP compete for binding an anti-ADP monoclonal antibody labeled with Eu^3+ cryptate. […] Assays were run in Greiner low volume plates with a final reaction volume of 10 μl. Percent inhibition was calculated from 100% activity of MAP4K4 (DMSO only) and 0% activity (no enzyme added). Data were either reported as % inhibition at a single dose or as pIC50 values derived from dose response curves (pIC50 = -log[IC50]).

vCor.4U cells = assay: Mitochondrial function (Seahorse XFe24, OCR and ECAR); assay type: cell-based, human; details: menadione 15 μM; 2 h
Description: Mitochondrial function in hiPSC-CMs was determined using a Seahorse XFe24 Analyzer. vCor.4U cells (60,000 well^-1) were transferred to 0.1% gelatin-coated XF24 plates and maintained for 5 d, as described above. On day 6, DMX-5804 was added 45 min prior to challenge with menadione for 2 h. The medium was replaced 1 hr before the assay, using bicarbonate-free Seahorse assay medium (8.3 g L^-1 DMEM Base (Sigma-Aldrich), 10 mM glucose, 2 mM L-alanyl-L-glutamine dipeptide (Glutamax-1, GIBCO), 1 mM sodium pyruvate (GIBCO), pH 7.4). Cells were maintained at 37°C without supplemental CO2 starting 1 hr before the assay (IL10 incubator, VWR). For each state measured, three assay cycles were performed (4 min mixing, 2 min wait, and 2 min measurement periods, with readings every 15 s). The basal oxygen consumption rate (OCR) and extracellular acidification rate (ECAR) were determined, followed by sequential injection of 1 μM oligomycin A (Abcam) to inhibit ATP synthase, 0.5 μM […] (FCCP; Abcam) to uncouple oxidative phosphorylation, and 1 μM antimycin A/rotenone (Sigma, Abcam) to inhibit mitochondrial complex III and I. For each condition, 12 wells were tested, comprising 4 independent experiments.

vCor.4U hiPSC-CMs = assay: Calcium transients (FLIPR Tetra, EarlyTox Cardiotoxicity dye); assay type: cell-based, human; details: Homo sapiens; calcium cycling; vCor.4U; 24 h; read-out: half-maximal loss of peak area and peak height
Description: Calcium transients in hiPSC-CMs were assessed using FLIPR Tetra instrumentation and Early Tox Cardiotoxicity kits (Molecular Devices). vCor.4U cells were subjected to graded concentrations of menadione and the MAP4K4 inhibitors as described for the viability assays. Compound concentrations and time course are denoted in the figure and figure legend. Vehicle controls were used throughout. Cells were incubated for 2-3 hr at 37°C in 5% CO2, using 3 μL well^-1 of EarlyTox Cardiotoxicity Kit concentrate as the fluorescent calcium indicator dye. Plates were then removed from the incubator and allowed to reach room temperature. Intracellular calcium oscillations were monitored using a FLIPR Tetra system with excitation LED bank 470-495 nm and emission filter set 515-575 nm (Molecular Devices). Fluorescence intensity signals were acquired for 600 reads at 1.2 ms intervals. Beat frequency, median peak height, median peak width and total peak area were calculated and compared with the baseline control and with menadione alone. Protection of calcium cycling by DMX-4804 was confirmed in 3 independent experiments with overlapping conditions, and results are shown for a full dose-response study, analyzing 4 wells for each point.

vCor.4U cardiomyocytes = assay: CellTiter-Glo viability after oxidative stress (H2O2 or menadione); assay type: cell-based, human; details: vCor.4U; 400 μM H2O2 1 h after compound; 10 μM
Description: vCor.4U cardiomyocytes were cultured, except where noted, on white (viability) or black (FLIPR) clear-bottom 384-well plates, treated for 1 hr with […] fibronectin (Sigma-Aldrich). To minimize batch to batch variation, thawed cells first were transferred from cryo-vials into sterile 250 mL flasks containing pre-warmed vCor.4U maintenance medium, for 3-5 d. The cells were then plated at 1000 well^-1 for viability assays or 5000 cells well^-1 for FLIPR experiments, all in 40 μl well^-1 of the maintenance medium. Cells were cultured in Axiogenesis complete medium followed by incomplete medium, were subjected to oxidative stress ± test compounds on day 3, and were assayed on day 4 (Figures 4D and 4E). Alternatively, complete medium was replaced on day 2 of culture with 40 μl of DMEM high Glucose (no FCS or pyruvate), followed by removal and replacement of 20 μl every 2 d for 10 d (Figures 4A–4C).
H2O2, menadione (Sigma-Aldrich), doxorubicin (Calbiochem), and C2-ceramide (N-acetyl-D-sphingosine) were used at the indicated concentrations. MAP4K4 inhibitors were serially diluted in DMSO, transferred to an intermediate plate using assay medium as a diluting agent, and added at a final concentration of 0.1% DMSO. MAP4K4 inhibitors were added to cultured cardiomyocytes 1 hr before the cell death inducers, except where noted, and remained present for the duration of the experiment.
For cell-based dose-response experiments, MAP4K4 inhibitors were prepared in 96-well polypropylene plates as serial dilutions in DMSO of 10 mM stock solutions. To a sterile 96-well intermediate plate, 1 μl of each well was added to 99 μl of medium, the samples were mixed, and 5 μl well^-1 from the intermediate plate were transferred to the cultured cells (final concentration, 0.1% DMSO; final top concentration of inhibitor, 10 μM). Assay plates were gently centrifuged then incubated for 1 hr at 37°C. The death triggers menadione, H2O2 and doxorubicin were prepared fresh on the day of treatment at 10x the final concentrations and 5 μl well^-1 were added as appropriate. Assay plates were gently centrifuged and then incubated at 37°C for the duration of treatment.
Assay plates were removed from the incubator, allowed to reach room temperature, inoculated with 20 μl well^-1 CTG reagent (Promega), and gently agitated for 30 min. Prior to adding CTG, 2 μl well^-1 of the culture medium was removed and placed into a white 384-well low volume plate for measurement of cardiac troponin release by AlphaLISA (below). Luminescence due to ATP, proportional to cell number, was captured on a PHERAstar Plus microplate reader (BMG Labtech). Normalized values were plotted against the log concentration of death signal or inhibitor, and a 4-parameter fit was used to identify IC50 and EC50, respectively.

T1 sequence (O95819 1-328): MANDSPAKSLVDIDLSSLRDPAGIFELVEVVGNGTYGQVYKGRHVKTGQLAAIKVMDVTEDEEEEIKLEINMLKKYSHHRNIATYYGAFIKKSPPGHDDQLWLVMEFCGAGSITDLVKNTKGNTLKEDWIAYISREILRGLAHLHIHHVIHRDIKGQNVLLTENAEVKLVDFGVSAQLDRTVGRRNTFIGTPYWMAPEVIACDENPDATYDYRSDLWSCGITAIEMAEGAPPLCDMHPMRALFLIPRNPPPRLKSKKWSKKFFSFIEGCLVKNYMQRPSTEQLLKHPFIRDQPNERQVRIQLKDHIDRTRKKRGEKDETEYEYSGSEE

IC50 (recombinant human MAP4K4): 7.94 µM
Structure (SMILES): O=c1[nH]cnc2c1ccn2-c1ccccc1 [DMX-4815]

IC50 (recombinant human MAP4K4): 0.794 µM
Structure (SMILES): O=c1[nH]cnc2[nH]cc(-c3ccccc3)c12 [DMX-4850]

Structure (SMILES): CC1=CC(=O)c2ccccc2C1=O [menadione]
Maximum oxidative capacity, of control levels (vCor.4U cells): 15% | IC50 (vCor.4U hiPSC-CMs): 16 µM

Structure (SMILES): COCCc1ccc(OCC(O)CNC(C)C)cc1 (centres unmarked) [metoprolol]
human cardiomyocyte survival (rescue of viability) (vCor.4U cardiomyocytes): promoted

From PMC6458995, “MAP4K4 Inhibition Promotes Survival of Human Stem Cell-Derived Cardiomyocytes and Reduces Infarct Size In Vivo” (Cell Stem Cell, 2019)
